Patent US9580426B2, “Compounds that expand hematopoietic stem cells” (Novartis AG, priority 2008, dated 2017)

Assays:
mPB CD34+ HSCs = test: Cobblestone area-forming cell (CAFC) assay; assay type: cell-based, human; settings: 1 micromolar; mPB CD34+ HSCs after 5 days of culture
Description: Cobblestone area-forming cell (CAFC) assays: The FBMD-1 stromal cells are maintained in 25-cm^2 flasks and are trypsinized after ⅓ confluence. Since this non-transformed line ages, and therefore gradually loses its potential to support CAFC growth at late stages, all feeders are used below passage 20. For supporting CAFC growth in 96-well plates, 1×10^3 stromal cells are seeded per well. The cultures are maintained in Iscove's medium supplemented with 10% fetal calf serum (FCS), 2.5% horse serum (HS), 1% L-glutamine, 1% penicillin-streptomycin, and 1×10^−5 M hydrocortisone at 37° C. in a humidified atmosphere of 5% CO2 in air. After stromal layers reach confluency, they are inoculated with CD34^+ HSCs that have been cultured for 5 days with vehicle or a compound of the invention. MNCs are added at 8 serial 1:3 dilutions (starting at 25,000 cells/well), with 10 wells for each cell dose. The dilutions with wells with at least one phase-dark hematopoietic clone (cobblestone area) of at least five cells beneath the stromal layer are determined at week 4. […]

CB CD34+ cells = test: Determination of CD34+ cell subsets by FACS; assay type: cell-based, human
Description: Surface Antigen Analysis: The cells are washed with staining media (Hanks balanced salt solution containing FBS (2%) and EDTA (2 mM)) and stained (at 4° C. for 30 minutes) with indicated primary conjugated antibodies. The cells are washed in the previously described buffer and analyzed using a BD LSR II flow cytometer (Becton Dickinson, San Jose, Calif.). The cells are passed at a rate of up to 1000 cells/second using 488-nm argon and 633-nm HeNe laser beams as the light source for excitation. Emission of 10^4 cells is measured using logarithmic amplification and analyzed using FlowJo software (TreeStar Inc. Ashland, Oreg.). Cells stained with primary conjugated isotype control antibodies are used to determine background fluorescence.
Determination of CD34^+ cell subsets: The percentages of CD34^+ cell subsets are determined from aliquots of the cell culture. Cells were stained with APC anti-Thy1.1, PerCP anti-CD34, PECy7 anti CD45RA, FITC anti CD38, and PE anti-CD133 for determination of CD34^+Thy1.1^+, CD34^+CD45RA^−, CD34^+CD38^−, CD133^+CD38^− and CD34^+CD133^+ cells. Antibodies to CD34, CD38, Thy1.1 and CD45RA were purchased from Becton Dickinson and antibodies to CD133 were purchased Miltenyi Biotec. FACS analysis results of these subsets are given as percentage of the total population. The absolute number of each population of cells in the culture is calculated from the total number of cells multiplied by the percentage of each population. Starting with CB CD34+ cell, after five weeks the total cell number in the cultures increased on average greater than 2-fold in the 4-(2-(2-(benzo[b]thiophen-3-yl)-9-isopropyl-9H-purin-6-ylamino)ethyl)phenol (compound 1, table 1; example 1) 1 micromolar treated cells compared to control cultures. More importantly, >50% of 4-(2-(2-(benzo[b]thiophen-3-yl)-9-isopropyl-9H-purin-6-ylamino)ethyl)phenol (compound 1, table 1; example 1) cultured cells were CD34^+ compared to <10% of vehicle cultured cells resulting in a greater than 10-fold expansion of CD34^+ cells compared to control and a greater than 10.000-fold expansion compared to input cells. In addition, the presence of 1 micromolar 4-(2-(2-(benzo[b]thiophen-3-yl)-9-isopropyl-9H-purin-6-ylamino)ethyl)phenol (compound 1, table 1; example 1) increased both the percentage and total numbers of the CD34^+ subpopulations, CD34^+CD45RA^−, CD34^+CD38^−, CD133^+CD38^−, and CD34^+CD133^+ resulting in a net expansion of greater than 30-fold for each subset.

human AHR = biological target: T1, human AHR (Homo sapiens, UniProt P35869); test: cell-based; assay type: cell-based
T1 construct: endogenous in cells; host or cells: unnamed human cells carrying an AHR-dependent luciferase reporter
T1 sequence (P35869 11-848): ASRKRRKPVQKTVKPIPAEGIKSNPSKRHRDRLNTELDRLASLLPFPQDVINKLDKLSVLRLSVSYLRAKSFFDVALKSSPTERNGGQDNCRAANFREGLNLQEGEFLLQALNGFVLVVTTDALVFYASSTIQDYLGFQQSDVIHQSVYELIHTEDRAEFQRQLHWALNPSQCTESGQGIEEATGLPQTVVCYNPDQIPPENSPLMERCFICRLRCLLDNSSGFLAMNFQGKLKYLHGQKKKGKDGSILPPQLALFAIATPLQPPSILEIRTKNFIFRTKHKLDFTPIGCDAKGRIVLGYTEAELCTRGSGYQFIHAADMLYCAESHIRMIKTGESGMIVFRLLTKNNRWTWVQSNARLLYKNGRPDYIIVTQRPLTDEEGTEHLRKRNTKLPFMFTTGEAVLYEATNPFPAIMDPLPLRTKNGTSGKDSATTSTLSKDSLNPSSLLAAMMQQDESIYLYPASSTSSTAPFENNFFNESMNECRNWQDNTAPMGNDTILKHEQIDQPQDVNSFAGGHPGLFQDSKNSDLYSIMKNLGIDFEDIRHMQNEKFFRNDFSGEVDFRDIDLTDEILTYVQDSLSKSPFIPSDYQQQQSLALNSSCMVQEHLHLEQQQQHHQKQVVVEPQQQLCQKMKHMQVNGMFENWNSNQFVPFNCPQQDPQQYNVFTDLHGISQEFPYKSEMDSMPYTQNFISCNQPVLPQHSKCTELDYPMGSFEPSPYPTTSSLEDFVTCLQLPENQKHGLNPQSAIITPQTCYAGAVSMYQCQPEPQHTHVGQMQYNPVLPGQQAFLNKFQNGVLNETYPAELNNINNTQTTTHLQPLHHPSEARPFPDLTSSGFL
Description: Further, the ability of Example 1 to block 2,3,7,8-tetrachlorodibenzo-p-dioxin (TCDD, dioxin)-mediated CYP1B1 mRNA expression by qPCR in mPB-derived CD34^+ cells was determined. Treatment with TCDD (3 nM) caused a 4.5-fold increase in the level of CYP1B1 mRNA compared with the vehicle control (0.01% toluene). […] To determine the effects of Example 1 in AHR transcription the ability of Example 1 to inhibit a dioxin-induced AHR dependent luciferase reporter gene assay was tested.

For `CC(C)n1cnc2c(NCCc3ccc(O)cc3)nc(-c3csc4ccccc34)nc21` [Example 1, 4-(2-(2-(benzo[b]thiophen-3-yl)-9-isopropyl-9H-purin-6-ylamino)ethyl)phenol], the “increase in the number of cobblestone area forming cells compared with DMSO control” value (mPB CD34+ HSCs) was “greater than 2 fold”, the “net expansion of each subset CD34+CD45RA-, CD34+CD38-, CD133+CD38-, CD34+CD133+” value (CB CD34+ cells; 1 micromolar) was “greater than 30 fold” and the “increase of total cell number compared to control cultures” value (CB CD34+ cells; 1 micromolar, after five weeks) was “greater than 2 fold”. The “expansion of CD34+ cells compared to control” value (CB CD34+ cells; five weeks) was “greater than 10 fold”, the “expansion of CD34+ cells compared to input cells” value (CB CD34+ cells; five weeks) was “greater than 10.000 fold” and the “percentage of cultured cells that were CD34+” value (CB CD34+ cells; five weeks, vehicle <10%) was greater than 50%. For the same compound, the EC50 (human AHR) was 127 nM, the “dioxin-induced AHR dependent transcription” value (human AHR; 1 μM, cells expressing human AHR) was “completely abolished” and the “agonist activity (induction of AHR dependent transcription)” value (human AHR; human cells) was “failed to induce AHR dependent transcription”.
